Four compounds from ChEMBL document CHEMBL1201862, “PubChem BioAssay data set” (2004) can be followed below.

SMILES strings stand for the structures.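 Test compounds were applied to cells in 96-well plates for 48 hours at 5 doses. The concentration for 50% growth inhibition is given as GI50.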 Calls of active or inactive are those of the source. Cut-off read from the data, not from the text of the source: active = GI50 up to about 1.1 µM and inactive = higher.

What all share (test): NCI anticancer screen, dose series, 48 h
Assay [1] has as its system UO-31.
In assay [2] the test system is Malme-3M.
In assay [3] the test system is MOLT-4.
The test system of assay [4] is LOX IMVI.
Assay [5] has as its system CCRF-CEM.
The subject of assay [6] is SW-620.
Assay [7] relates to DU-145.
The test system of assay [8] is UACC-257.
Assay [9] deals with CAKI-1.
The subject of assay [10] is NCI-H226.
Assay [11] concerns KM12.
Assay [12] deals with MDA-MB-231.
Assay [13] concerns HOP-62.
The subject of assay [14] is RXF 393.
The subject of assay [15] is M14.
Assay [16] concerns OVCAR-5.
The subject of assay [17] is NCI/ADR-RES.
Assay [18] relates to A549.
Assay [19] has as its system UACC-62.
In assay [20] the test system is HL-60.

As for `COc1cc(C=O)ccc1Oc1nnnn1-c1ccccc1`, the GI50 is 94.4 µM (inactive) in assay [1]; 84.1 µM (inactive) in assay [2]; 23.1 µM (inactive) in assay [3]; 39.9 µM (inactive) in assay [4]; 19.6 µM (inactive) in [5]; 27.5 µM (inactive) in assay [6]. The GI50 is 32.1 µM (inactive) in assay [7]; > 100 µM (inactive) in assay [8]; 31.3 µM (inactive) in [9]; < 0.01 µM (active) in assay [10]; 55 µM (inactive) in assay [11]; > 100 µM (inactive) in assay [12]. Moreover, the GI50 in assay [13] was > 100 µM (inactive); in assay [14], > 100 µM (inactive); in [15], 31.8 µM (inactive); in assay [16], > 100 µM (inactive); in assay [17], 38.5 µM (inactive); in [18], > 100 µM (inactive).
For `CCCCSCc1nc2nc(Cl)c(Cl)nc2[nH]1`, the GI50 in [2] is 20.3 µM (inactive); in assay [3] it was 19.5 µM (inactive); in [4] it was 21.7 µM (inactive); in assay [5], 11.3 µM (inactive); in [6], 28.5 µM (inactive); in assay [19] it was 10.5 µM (inactive). Moreover, the GI50 was 32.5 µM (inactive) in [7]; 16.1 µM (inactive) in assay [8]; 23.7 µM (inactive) in assay [9]; 33.7 µM (inactive) in [10]; 29.8 µM (inactive) in assay [11]; 24.6 µM (inactive) in assay [12]. The GI50 was 16.1 µM (inactive) in [13]; 19.4 µM (inactive) in [14]; 23.8 µM (inactive) in assay [15]; 30.9 µM (inactive) in assay [16]; 27 µM (inactive) in [17]; 28.8 µM (inactive) in [18].
With `Nc1cccc(C#Cc2cccc(C#Cc3cccc(N)n3)n2)n1`, the GI50 in assay [1] was > 100 µM (inactive); in assay [3], 32.8 µM (inactive); in assay [4], > 100 µM (inactive); in assay [5] it was 5.85 µM (inactive); in assay [6], > 100 µM (inactive); in [19], > 100 µM (inactive). Also, the GI50 in assay [7], in assay [8], in assay [9], in [10], in [11] and in [12] was > 100 µM (inactive) in each case. Besides, the GI50 in [13], in [14], in [15], in assay [16] and in [17] was > 100 µM (inactive) each time.
As to `Cc1noc(/N=C2\C=C(O)C(=O)c3ccccc32)c1C`, the GI50 was 3.18 µM (inactive) in assay [1]; 2.55 µM (inactive) in assay [2]; 18.7 µM (inactive) in assay [3]; 2.14 µM (inactive) in [4]; 2.14 µM (inactive) in [19]; 11.4 µM (inactive) in assay [7]. Also, the GI50 in assay [8] was 4.19 µM (inactive); in assay [9], 5 µM (inactive); in [20] it was 0.516 µM (active); in assay [10], 23.8 µM (inactive); in assay [11], 0.254 µM (active); in [12] it was 11.6 µM (inactive). Also, the GI50 in [13] is 2.18 µM (inactive); in assay [15], 0.656 µM (active); in [16], 9.27 µM (inactive); in [17] it was 0.505 µM (active); in [18], 5.31 µM (inactive).
